{
  "source": "patent US5023364A",
  "about": "“Phenoxyalkylcarboxylic acid derivatives and process for their preparation” (Kyorin Pharmaceutical Co., Ltd., priority 1987, dated 1991)",
  "tested_on": "leukotriene D4 -induced bronchoconstriction",
  "test": "Inhibition of bronchoconstriction in guinea pigs (leukotriene D4-induced, modified Konzett-Rossler method)",
  "format": "in vivo, Male Hartley guinea pig",
  "settings": "p.o., 2 hours before leukotriene D4 challenge (3 μg/kg, i.v.)",
  "description": "Inhibition of bronchoconstriction in guinea pigs\nMale Hartley guinea pig weighing about 450 g was anesthetized with sodium pentobarbital (30 mg/kg,i.p.), and the changes in transpulmonary pressure was measured by modifying the method of Konzett-Rossler (J. Harvey, et al., J. Pharmacol. Method. 9, 147-155, 1983) under an artificial ventilation. Bronchoconstrictor response was induced by bolus injection of leukotriene D4 (3 μg/kg,i.v.) from jugular vein. Animal was treated with indomethacin (10 mg/kg,i.v.) and propranolol (1 mg/kg,i.v.) before leukotriene D4 challenge. Test compounds suspended in 5% Gum Arabic solution were administered orally 2 hours before leukotriene D4 challenge.",
  "data": [
    {"molecule": "CCCc1c(OCCCOc2ccc(C(C)=O)c(OCCCC(=O)O)c2CCC)ccc(C(C)=O)c1O", "note": "[Example 5, 4-[6-Acetyl-3-[3-(4-acetyl-3-hydroxy-2-propylphenoxy)propoxy]-2-propylphenoxy]butanoic acid]", "values": [
      {"measurement": "Inhibition (%)", "setting": "1.5 mg/kg", "value": 27.4, "unit": "%"},
      {"measurement": "Inhibition (%)", "setting": "6.25 mg/kg", "value": 41.7, "unit": "%"},
      {"measurement": "Inhibition (%)", "setting": "12.5 mg/kg", "value": 59.0, "unit": "%"},
      {"measurement": "Inhibition (%)", "setting": "50 mg/kg", "value": 82.7, "unit": "%"}
    ]},
    {"molecule": "CCCc1c(OCCOc2ccc(C(C)=O)c(OCCCC(=O)O)c2CCC)ccc(C(C)=O)c1O", "note": "[Example 6, 4-[6-acetyl-3-[2-(4-acetyl-3-hydroxy-2-propylphenoxy)-ethoxy]-2-propylphenoxy]butanoic acid]", "values": [
      {"measurement": "Inhibition (%)", "setting": "12.5 mg/kg", "value": 28.6, "unit": "%"},
      {"measurement": "Inhibition (%)", "setting": "50 mg/kg", "value": 86.6, "unit": "%"}
    ]},
    {"molecule": "CCCc1c(OCCCOc2ccc(C(C)=O)c(OCCCCC(=O)O)c2CCC)ccc(C(C)=O)c1O", "note": "[Example 7, 5-[6-acetyl-3-[3(4-acetyl-3-hydroxy-2-propylphenoxy)propoxy]-2-propylphenoxy]pentanoic acid]", "values": [
      {"measurement": "Inhibition (%)", "setting": "12.5 mg/kg", "value": 45.2, "unit": "%"},
      {"measurement": "Inhibition (%)", "setting": "50 mg/kg", "value": 94.8, "unit": "%"}
    ]},
    {"molecule": "CCCc1c(OCCCCOc2ccc(C(C)=O)c(OCCCC(=O)O)c2CCC)ccc(C(C)=O)c1O", "note": "[Example 8, 4-[6-acetyl-3-[4-(4-acetyl-3-hydroxy-2-propylphenoxy)butoxy]-2-propylphenoxy]butanoic acid]", "values": [
      {"measurement": "Inhibition (%)", "setting": "50 mg/kg", "value": 83.1, "unit": "%"}
    ]},
    {"molecule": "CCCc1c(OCCCOc2ccc(C(C)=O)c(OCC(=O)O)c2CCC)ccc(C(C)=O)c1O", "note": "[Ref. 1, [6-acetyl-3-[3-(4-acetyl3-hydroxy-2-propylphenoxy)propoxy]-2-propylphenoxy]acetic acid, reference compound]", "values": [
      {"measurement": "Inhibition (%)", "setting": "12.5 mg/kg", "value": -12.1, "unit": "%"},
      {"measurement": "Inhibition (%)", "setting": "50 mg/kg", "value": 56.1, "unit": "%"}
    ]},
    {"molecule": "CCCc1c(OCCCCCOc2c(C(C)=O)ccc(OCC(=O)O)c2CCC)ccc(C(C)=O)c1O", "note": "[Ref. 2, [4Acetyl-3-[5-(4-acetyl-3-hydroxy-2-propylphenoxy)-pentyloxy]-2-propylpheoxy]acetic acid, reference compound]", "values": [
      {"measurement": "Inhibition (%)", "setting": "50 mg/kg", "value": 16.9, "unit": "%"}
    ]}
  ]
}
